Results taken from BigSolDB 2.1.

## O=C(O)c1ccc(Cl)cc1C(=O)O
In water, 283.15 K
  solubility (mole fraction): 0.0802
In water, 288.15 K
  solubility (mole fraction): 0.0913
In water, 293.15 K
  solubility (mole fraction): 0.109
In water, 298.15 K
  solubility (mole fraction): 0.125
In water, 303.15 K
  solubility (mole fraction): 0.145
In water, 308.15 K
  solubility (mole fraction): 0.169
In water, 313.15 K
  solubility (mole fraction): 0.2
In water, 318.15 K
  solubility (mole fraction): 0.226
In water, 323.15 K
  solubility (mole fraction): 0.262
In water, 328.15 K
  solubility (mole fraction): 0.299
In water, 333.15 K
  solubility (mole fraction): 0.349

## O=C1OC(=O)c2c(Cl)cccc21
In 1,4-dioxane, 283.15 K
  solubility (mole fraction): 0.185
In 1,4-dioxane, 288.15 K
  solubility (mole fraction): 0.226
In 1,4-dioxane, 293.15 K
  solubility (mole fraction): 0.268
In 1,4-dioxane, 298.15 K
  solubility (mole fraction): 0.296
In 1,4-dioxane, 303.15 K
  solubility (mole fraction): 0.328
In 1,4-dioxane, 308.15 K
  solubility (mole fraction): 0.367
In 1,4-dioxane, 313.15 K
  solubility (mole fraction): 0.396
In 1,4-dioxane, 318.15 K
  solubility (mole fraction): 0.42
In 1,4-dioxane, 323.15 K
  solubility (mole fraction): 0.439
In acetone, 283.15 K
  solubility (mole fraction): 0.167
In acetone, 288.15 K
  solubility (mole fraction): 0.182
In acetone, 293.15 K
  solubility (mole fraction): 0.202
In acetone, 298.15 K
  solubility (mole fraction): 0.218
In acetone, 303.15 K
  solubility (mole fraction): 0.234
In acetone, 308.15 K
  solubility (mole fraction): 0.261
In acetone, 313.15 K
  solubility (mole fraction): 0.291
In acetone, 318.15 K
  solubility (mole fraction): 0.32
In acetone, 323.15 K
  solubility (mole fraction): 0.357
In ethyl acetate, 283.15 K
  solubility (mole fraction): 0.107
In ethyl acetate, 288.15 K
  solubility (mole fraction): 0.112
In ethyl acetate, 293.15 K
  solubility (mole fraction): 0.121
In ethyl acetate, 298.15 K
  solubility (mole fraction): 0.133
In ethyl acetate, 303.15 K
  solubility (mole fraction): 0.154
In ethyl acetate, 308.15 K
  solubility (mole fraction): 0.169
In ethyl acetate, 313.15 K
  solubility (mole fraction): 0.191
In ethyl acetate, 318.15 K
  solubility (mole fraction): 0.225
In ethyl acetate, 323.15 K
  solubility (mole fraction): 0.265

## O=C1OC(=O)c2cc(Cl)ccc21
In 1,4-dioxane, 283.15 K
  solubility (mole fraction): 0.0825
In 1,4-dioxane, 288.15 K
  solubility (mole fraction): 0.0992
In 1,4-dioxane, 293.15 K
  solubility (mole fraction): 0.124
In 1,4-dioxane, 298.15 K
  solubility (mole fraction): 0.142
In 1,4-dioxane, 303.15 K
  solubility (mole fraction): 0.166
In 1,4-dioxane, 308.15 K
  solubility (mole fraction): 0.205
In 1,4-dioxane, 313.15 K
  solubility (mole fraction): 0.25
In 1,4-dioxane, 318.15 K
  solubility (mole fraction): 0.298
In 1,4-dioxane, 323.15 K
  solubility (mole fraction): 0.359
In acetone, 283.15 K
  solubility (mole fraction): 0.201
In acetone, 288.15 K
  solubility (mole fraction): 0.222
In acetone, 293.15 K
  solubility (mole fraction): 0.246
In acetone, 298.15 K
  solubility (mole fraction): 0.287
In acetone, 303.15 K
  solubility (mole fraction): 0.316
In acetone, 308.15 K
  solubility (mole fraction): 0.369
In acetone, 313.15 K
  solubility (mole fraction): 0.427
In acetone, 318.15 K
  solubility (mole fraction): 0.473
In acetone, 323.15 K
  solubility (mole fraction): 0.522
In ethyl acetate, 283.15 K
  solubility (mole fraction): 0.178
In ethyl acetate, 288.15 K
  solubility (mole fraction): 0.184
In ethyl acetate, 293.15 K
  solubility (mole fraction): 0.206
In ethyl acetate, 298.15 K
  solubility (mole fraction): 0.228
In ethyl acetate, 303.15 K
  solubility (mole fraction): 0.261
In ethyl acetate, 308.15 K
  solubility (mole fraction): 0.293
In ethyl acetate, 313.15 K
  solubility (mole fraction): 0.326
In ethyl acetate, 318.15 K
  solubility (mole fraction): 0.377
In ethyl acetate, 323.15 K
  solubility (mole fraction): 0.437

## O=C(O)c1cccc(Cl)c1C(=O)O
In water, 283.15 K
  solubility (mole fraction): 0.00201
In water, 288.15 K
  solubility (mole fraction): 0.00221
In water, 293.15 K
  solubility (mole fraction): 0.00248
In water, 298.15 K
  solubility (mole fraction): 0.00281
In water, 303.15 K
  solubility (mole fraction): 0.00315
In water, 308.15 K
  solubility (mole fraction): 0.00346
In water, 313.15 K
  solubility (mole fraction): 0.00383
In water, 318.15 K
  solubility (mole fraction): 0.0043
In water, 323.15 K
  solubility (mole fraction): 0.00473
In water, 328.15 K
  solubility (mole fraction): 0.00517
In water, 333.15 K
  solubility (mole fraction): 0.0056
